Measurements reported in the supplement of paper PMC10307832.

Assays:
Assay in all cases: relative viability (nuclei count vs DMSO), 5 days (fraction); higher = more cells survive
Serdemetan + Pemetrexed = compound: c1ccc2c(CCNc3ccc(Nc4ccncc4)cc3)c[nH]c2c1 [Serdemetan] + Nc1nc2[nH]cc(CCc3ccc(C(=O)N[C@@H](CCC(=O)O)C(=O)O)cc3)c2c(=O)[nH]1 [Pemetrexed] (partner 0.2 µM)
How it was run: (§1)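 After 5 days of treatment, lung cancer cells in 1536-well plates were fixed and stained in a single step (final 0.05% Triton X-100, 1% formaldehyde, 1 ug/ml Hoechst) and their nuclei counted on 4× images. Treatment had been applied by pin tool the day after seeding as one drug alone or as a fixed anchor-drug dose with five library-drug doses (not always all listed) in √10 steps. Relative viability is the nuclei count of treated wells divided by that of vehicle wells, and values are medians of duplicate plates.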

Serdemetan + Navitoclax = compound: c1ccc2c(CCNc3ccc(Nc4ccncc4)cc3)c[nH]c2c1 [Serdemetan] + CC1(C)CCC(c2ccc(Cl)cc2)=C(CN2CCN(c3ccc(C(=O)NS(=O)(=O)c4ccc(N[C@H](CCN5CCOCC5)CSc5ccccc5)c(S(=O)(=O)C(F)(F)F)c4)cc3)CC2)C1 [Navitoclax] (partner 0.5 µM)
How it was run: as §1

Selisistat + Tozasertib = compound: C1CC(C2=C(C1)C3=C(N2)C=CC(=C3)Cl)C(=O)N [Selisistat] + Cc1cc(Nc2cc(N3CCN(C)CC3)nc(Sc3ccc(NC(=O)C4CC4)cc3)n2)n[nH]1 [Tozasertib] (partner 0.1 µM)
How it was run: as §1

Serdemetan + Crizotinib = compound: c1ccc2c(CCNc3ccc(Nc4ccncc4)cc3)c[nH]c2c1 [Serdemetan] + C[C@@H](Oc1cc(-c2cnn(C3CCNCC3)c2)cnc1N)c1c(Cl)ccc(F)c1Cl [Crizotinib] (partner 1 µM)
How it was run: as §1

Row | Cell Line | relative viability (Serdemetan + Pemetrexed; first compound 0.04 µM) | relative viability (Serdemetan + Pemetrexed; first compound 0.1265 µM) | relative viability (Serdemetan + Pemetrexed; first compound 0.4 µM) | relative viability (Serdemetan + Pemetrexed; first compound 1.265 µM) | relative viability (Serdemetan + Pemetrexed; first compound 4 µM) | relative viability (Serdemetan + Navitoclax; first compound 0.04 µM) | relative viability (Serdemetan + Navitoclax; first compound 0.1265 µM) | relative viability (Serdemetan + Navitoclax; first compound 0.4 µM) | relative viability (Serdemetan + Navitoclax; first compound 1.265 µM) | relative viability (Serdemetan + Navitoclax; first compound 4 µM) | relative viability (Selisistat + Tozasertib; first compound 0.4 µM) | relative viability (Selisistat + Tozasertib; first compound 1.265 µM) | relative viability (Selisistat + Tozasertib; first compound 4 µM) | relative viability (Selisistat + Tozasertib; first compound 12.65 µM) | relative viability (Selisistat + Tozasertib; first compound 40 µM) | relative viability (Serdemetan + Crizotinib; first compound 0.04 µM) | relative viability (Serdemetan + Crizotinib; first compound 0.1265 µM) | relative viability (Serdemetan + Crizotinib; first compound 0.4 µM) | relative viability (Serdemetan + Crizotinib; first compound 1.265 µM) | relative viability (Serdemetan + Crizotinib; first compound 4 µM)
1 | NCI-H322M | 0.576 | 0.583 | 0.622 | 0.645 | 0.628 | 1.05 | 1.21 | 1.12 | 1.43 | 1.06 | 0.552 | 0.475 | 0.455 | 0.469 | 0.495 | 0.917 | 0.93 | 0.859 | 0.917 | 0.585
2 | NCI-H2228 | 0.349 | 0.364 | 0.325 | 0.312 | 0.253 | 0.878 | 0.782 | 0.86 | 0.34 | 0.199 | 0.315 | 0.223 | 0.29 | 0.315 | 0.217 | 0.466 | 0.284 | 0.591 | 0.237 | 0.287
3 | NCI-H647 | 0.164 | 0.172 | 0.175 | 0.179 | 0.137 | 1.06 | 1.14 | 1.06 | 0.844 | 0.83 | 0.227 | 0.322 | 0.44 | 0.29 | 0.343 | 0.978 | 1.16 | 0.983 | 0.583 | 0.637
4 | SK-MES-1 | 0.938 | 0.89 | 0.824 | 0.772 | 0.841 | 1.21 | 1.24 | 1.25 | 0.917 | 0.551 | 0.977 | 0.869 | 0.954 | 0.829 | 0.948 | 0.983 | 0.976 | 0.898 | 0.647 | 0.56
5 | NCI-H2170 | 0.231 | 0.288 | 0.248 | 0.266 | 0.284 | 0.591 | 0.705 | 0.52 | 0.554 | 0.601 | 0.732 | 0.592 | 0.703 | 0.629 | 0.8 | 1.13 | 1.16 | 1.16 | 1.22 | 1.22
6 | NCI-H2085 | 0.91 | 0.818 | 0.773 | 0.798 | 0.642 | 1.16 | 1.01 | 1.04 | 0.815 | 0.685 | 0.852 | 0.779 | 0.697 | 0.805 | 0.806 | 0.688 | 0.817 | 0.733 | 0.627 | 0.561
7 | SW 1573 | 0.869 | 0.851 | 0.887 | 0.689 | 0.376 | 0.898 | 0.876 | 1.02 | 0.303 | 0.105 | 0.206 | 0.175 | 0.175 | 0.206 | 0.184 | 0.851 | 0.702 | 0.761 | 0.385 | 0.207
8 | NCI-H441 | 0.262 | 0.293 | 0.257 | 0.202 | 0.225 | 0.424 | 0.654 | 0.87 | 0.87 | 0.317 | 0.688 | 0.607 | 0.65 | 0.597 | 0.59 | 0.721 | 0.713 | 0.649 | 0.487 | 0.596
9 | LOU-NH91 | 0.394 | 0.383 | – | – | 0.419 | 0.696 | 0.74 | – | 0.534 | 0.581 | 0.784 | 0.626 | 0.598 | 0.703 | 0.673 | 0.733 | 0.738 | – | 0.719 | 0.699
10 | NCI-H3122 | 0.182 | 0.201 | 0.197 | 0.178 | 0.2 | 0.975 | 0.951 | 1 | – | 1.04 | 0.367 | 0.352 | 0.347 | 0.34 | 0.372 | 0.292 | 0.241 | 0.28 | – | 0.237
11 | NCI-H460 | 0.0612 | 0.0565 | 0.0655 | 0.0326 | 0.064 | 1.03 | 1.04 | 1.13 | 0.303 | 0.0983 | 0.515 | 0.366 | 0.289 | 0.28 | 0.441 | 0.842 | 0.866 | 0.836 | 0.154 | 0.075
12 | NCI-H1734 | 0.44 | 0.396 | 0.405 | 0.171 | 0.14 | 0.68 | – | 0.202 | 0.108 | 0.188 | 0.278 | 0.265 | 0.283 | 0.263 | 0.228 | 0.61 | – | 0.196 | 0.144 | 0.155
13 | LXF-289 | 0.894 | 0.989 | 0.86 | 0.76 | 0.795 | 0.931 | 0.927 | 0.884 | 0.759 | 0.749 | 0.18 | 0.162 | 0.2 | 0.179 | 0.237 | 0.754 | 0.776 | 0.719 | 0.637 | 0.689
14 | H3255 | 0.594 | 0.462 | 0.541 | 0.539 | 0.572 | 0.437 | 0.538 | 0.485 | 0.362 | 0.404 | 0.624 | 0.772 | 0.589 | 0.657 | 0.717 | 0.723 | 0.836 | 0.811 | 0.746 | 0.853
15 | 201T | 0.306 | 0.287 | 0.29 | 0.332 | 0.353 | 1.18 | 1.22 | 1.2 | 1.14 | 1.13 | 0.945 | 0.95 | 0.873 | 0.919 | 0.935 | 1.05 | 1.03 | 0.948 | 0.927 | 0.879
16 | NCI-H2126 | 0.671 | 0.707 | 0.579 | 0.601 | 0.78 | 0.841 | 0.869 | 0.795 | 0.704 | 0.825 | 0.852 | 0.819 | 0.825 | 0.841 | 0.867 | 1.02 | 1.07 | 0.944 | 0.734 | 1
